In patent US10064863B2, “Formulations of 3-(5-amino-2-methyl-4-oxo-4H-quinazolin-3-yl)-piperidine-2,6-dione” (Celgene Corporation, priority 2015, dated 2018):

Experiment: Degradation of Compound A by hydrolysis
Assay type: physicochemical
From the text: In another aspect is an anhydrous pharmaceutical composition and dosage form. Such anhydrous forms can reduce or eliminate degradation of active ingredients in the composition resulting from heat or water exposure. For example, the addition of water (e.g., 5 percent) is widely accepted in the pharmaceutical arts as a means of simulating shelf-life, e.g., long-term storage in order to determine characteristics such as shelf-life or the stability of formulations over time. See, e.g., Jens T. Carstensen, Drug Stability: Principles & Practice, 2d. Ed., Marcel Dekker, NY, N.Y., 1995, pp. 379-80. The effect of water on a formulation can be of great significance since moisture or humidity are commonly encountered during manufacture, handling, packaging, storage, shipment, and use of formulations.

With `Cc1nc2cccc(N)c2c(=O)n1C1CCC(=O)NC1=O` (stereo not shown) [Compound A, 3-(5-amino-2-methyl-4-oxo-4H-quinazolin-3-yl)-piperidine-2,6-dione] the degradation by hydrolysis was “easily degraded by hydrolysis”.
